The source made the active and inactive calls.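 How the source made its calls: active means KLF5 protein level in colon cancer cells lowered or raised by 30% or more versus solvent-only cells; inactive means the rest.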
What was measured:
[1] = biological target: Krueppel-like factor 5 (Homo sapiens) (UniProt Q13887); assay: change in KLF5 protein levels, late-stage follow-up, counter-screen for KLF5 inhibitor project, western blot, chemiluminescence, SW620 colorectal cells (AID 588661); conditions: SW620 cells, KLF5 protein western blot, 24 h; at 10 µM; stronger effect = higher value
Chain of Krueppel-like factor 5 (Homo sapiens) (Q13887 whole entry, looked up): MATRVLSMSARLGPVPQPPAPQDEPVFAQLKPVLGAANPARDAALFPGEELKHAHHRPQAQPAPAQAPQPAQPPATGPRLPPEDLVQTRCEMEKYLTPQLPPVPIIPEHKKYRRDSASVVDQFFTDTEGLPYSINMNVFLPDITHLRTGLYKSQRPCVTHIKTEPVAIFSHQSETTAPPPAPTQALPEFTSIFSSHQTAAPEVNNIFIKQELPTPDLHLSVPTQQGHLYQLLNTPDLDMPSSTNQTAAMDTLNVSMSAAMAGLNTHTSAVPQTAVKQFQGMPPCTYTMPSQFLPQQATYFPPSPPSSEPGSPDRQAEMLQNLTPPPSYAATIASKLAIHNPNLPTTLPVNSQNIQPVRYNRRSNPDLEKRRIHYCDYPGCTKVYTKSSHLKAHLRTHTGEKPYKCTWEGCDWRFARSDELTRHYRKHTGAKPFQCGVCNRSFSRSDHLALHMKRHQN

[2] = test system: SW620 cells, KLF5 protein western blot, 24 h; assay: as above; conditions: measured here: KLF5 protein fold change vs DMSO; at 10 µM

## CN(C(=O)COC(=O)/C=C/c1cccc([N+](=O)[O-])c1)C1CCS(=O)(=O)C1 (configuration not stated)
[1]
  inhibition: 7.48% (inactive)
[2]
  signed fold change vs DMSO (negative = decrease): -1.08
